# Measurements as given in patent US20200270576A1, “Ex Vivo Maintenance and Expansion of Stem Cells” (priority 2017, published 2020).
# What was measured:
# bone marrow cells = assay: TMI fluorescence (unfolded protein) in bone marrow cells from treated mice; format: in vivo; details: bone marrow cells isolated from treated mice
# Description: FIG. 6A-D depict the validation of tetraphenylethene maleimide (TMI) as a probe to measure unfolded protein. FIG. 6A depicts that TMI is a cell permeable dye that fluoresces upon binding to cysteine thiols. The free thiol side chains of non-disulphide bonded hydrophobic cysteines are typically buried within the core of globular proteins, but can be exposed in unfolded proteins. FIG. 6B depicts that TMI fluorescence was higher in bone marrow cells after a 4 hour incubation at 42° C. as compared to 37° C. Since heat shock induces protein unfolding, this validated TMI as a means to quantify unfolded protein. FIG. 6C depicts that TMI fluorescence in bone marrow cells was increased after treatment with the proteasome inhibitor bortezomib. […] FIG. 6B-D validated that TMI can be used to quantify unfolded protein (protein quality) in hematopoietic cells.
# As a complement to evaluating protein quality by assessing changes in ubiquitylated protein, a quantitative orthogonal assay to measure protein quality was developed. Tetraphenylethene maleimide (TMI) is a cell permeable dye that fluoresces upon binding to cysteine thiols. […] We adapted TMI to quantify unfolded proteins within single hematopoietic cells by flow cytometry. We validated TMI by assessing the effect of heat shock, which induces protein unfolding, on TMI fluorescence in bone marrow cells. […]
# Hsf1 = Hsf1 expression and localization by immunofluorescence in cultured HSCs; format: cell-based, mouse; details: 10 days culture; 17-AAG 5 nM, HSF1A 8 uM final concentration
# Description: FIG. 14 depicts representative immunofluorescence staining of HSCs cultured for 10 days in the presence or absence of 17-AAG or HSF1A. Addition of 17-AAG or HSF1A to culture medium increased Hsf1 accumulation in the nucleus of cultured HSCs. Hsf1-deficient HSCs and cells stained without primary antibody (Neg Con) are shown as controls.
# Since Hsf1 promoted HSC maintenance and protein homeostasis in vitro (FIG. 13), we investigated whether increasing Hsf1 expression or activity would further enhance HSC maintenance. […] Hsf1 can become active as a transcription factor when it translocates to the nucleus. We thus tested whether inhibitors of HSP90 or TRiC would promote Hsf1 accumulation in the nucleus of cultured HSCs by culturing HSCs for 10 days in the presence or absence of 17-AAG (HSP90 inhibitor; 5 nM final concentration) or HSF1A (TRiC inhibitor; 8 uM final concentration), and assessed Hsf1 expression and localization by immunofluorescence.
# HSCs = assay: Competitive transplantation of HSCs cultured 10 days, with serial transplantation; format: cell-based, murine
# Description: FIG. 16A-B depict that HSC functionality is maintained and expanded in vitro by interventions that can induce/activate Hsf1. FIG. 16A depicts donor cell engraftment 16 weeks after transplantation of 10 HSCs cultured for 10 days in the presence or absence of an HSP90 inhibitor (17-AAG) or TRiC inhibitor (HSF1A) or from 10 freshly isolated HSCs. Cells were transplanted with 2×10^5 freshly isolated congenic bone marrow cells (n=3 independent experiments with 3-5 recipients/condition/experiment). […] Addition of either 17-AAG or HSF1A increased the reconstituting potential of cultured HSCs as compared to both control cultured and freshly isolated HSCs.
# To test if HSCs depend on Hsf1 for their maintenance in vitro, we conditionally deleted Hsf1 from HSCs, cultured them for 10 days and assessed their long-term multilineage reconstituting activity in competitive transplantation assays. The assay for testing HSC function is to assess their capacity to give long-term (16+ week) multilineage (B cell, T cell and myeloid cell) reconstitution of the blood system of an irradiated transplant recipient. A competitive transplantation assay provides a quantitative readout of HSC regenerative activity.
# Modest declines in proteostasis impair HSC maintenance in vivo. […] This raises the possibility that increasing Hsf1 activity could promote HSC maintenance in vitro by enhancing proteostasis capacity. To test if HSP90 inhibitors or TRiC inhibitors promote HSC maintenance in vitro, purified HSCs were sorted from young adult murine bone marrow (CD45.1^+) into 96-well plates (10/well) containing our HSC medium supplemented with 17-AAG or HSF1A. HSCs were cultured for 10 days and competitively transplanted with 2×10^5 freshly isolated congenic bone marrow cells (CD45.2^+) into irradiated mice (CD45.2^+). Recipient mice were bled monthly (for 4 months) to assess levels of donor-derived CD45.1^+ hematopoietic cells. Self-renewal capacity of HSCs was assessed by serially transplanting hematopoietic cells from the primary recipients into secondary irradiated recipients (3×10^6 cells/recipient). […] Similar results are expected for other HSP90 or TRiC inhibitors.
# To test if HSP90 inhibitors or TRiC inhibitors enable HSC expansion in vitro, purified HSCs were sorted from young adult bone marrow (CD45.1^+) into 96-well plates (10/well) containing HSC medium supplemented with 17-AAG or HSF1A. HSCs were cultured for 10 days and competitively transplanted with 2×10^5 freshly isolated congenic bone marrow cells (CD45.2^+) into irradiated mice (CD45.2^+). At the same time, 10 freshly isolated HSCs were transplanted with 2×10^5 freshly isolated congenic bone marrow cells into irradiated mice. Recipient mice were bled monthly (for 4 months) to assess levels of donor-derived CD45.1^+ hematopoietic cells. Self-renewal capacity of HSCs was assessed by serially transplanting hematopoietic cells (3×10^6 cells/recipient) into secondary irradiated recipients. […] Similar results are expected for other HSP90 or TRiC inhibitors.
# [1] = tested on: Hsf1-deficient and control HSCs; assay: Competitive transplantation of cultured wild-type and Hsf1-deficient HSCs; format: cell-based, mice; details: 12 weeks after transplantation
# Description: FIG. 17 depicts that Hsf1 is required for 17-AAG and HSF1A to enhance HSC maintenance and expansion in vitro. Donor cell engraftment 12 weeks after transplantation of 10 wild-type and Hsf1-deficient HSCs cultured for 10 days in the presence or absence of 17-AAG, HSF1A or DMSO. Cells were transplanted with 2×10^5 freshly isolated congenic bone marrow cells (n=7-9; *P<0.05, **P<0.01).
# We tested whether the positive effects of 17-AAG and HSF1A on HSC maintenance/expansion in vitro were mediated by Hsf1. Purified Hsf1-deficient and control HSCs were sorted from adult bone marrow (CD45.2^+) into 96-well plates (10/well) containing HSC medium supplemented with 17-AAG, HSF1A or vehicle (DMSO). HSCs were cultured for 10 days and competitively transplanted with 2×10^5 freshly isolated congenic bone marrow cells (CD45.1^+) into irradiated mice (CD45.1^+). Recipient mice were bled monthly to assess levels of donor-derived CD45.2^+ hematopoietic cells. […] However, the positive effect of 17-AAG and HSF1A was lost with Hsf1-deficient HSCs (FIG. 17).
# [2] = tested on: primary bone marrow cells; assay: OPP incorporation (protein synthesis) by flow cytometry; format: cell-based, mouse; details: pre-treatment with translation inhibitor; primary bone marrow cells in culture
# Description: FIG. 1A-D depict quantification of protein synthesis in hematopoietic cells. FIG. 1A depicts how 0-propargyl-puromycin (OPP) was used to quantify protein synthesis within cells. OPP is a puromycin analog with a terminal alkyne group that mimics an aminoacyl-tRNA and integrates into nascent polypeptides. Azide-alkyne cycloaddition can covalently link a fluorescently tagged azide molecule to OPP that has been incorporated into new peptides. FIG. 1B depicts that when OPP was added to cell culture medium, its incorporation in primary bone marrow cells was detected and quantified by flow cytometry. […] FIG. 1C depicts OPP incorporation in CD150^+CD48^−Lineage^−Sca1^+ckit^+ (CD150^+CD48^−LSK) HSCs and unfractionated bone marrow cells one hour after administration in vivo. FIG. 1D depicts OPP incorporation (protein synthesis rates) in HSCs, multipotent progenitors (MPP), common myeloid progenitors (CMP), granulocyte macrophage progenitors (GMP), granulocytes (GR) megakaryocyte erythroid progenitors (MEP), CD71^+Ter119^+ erythroid progenitors (E), pro-B, pre-B, IgM^+ B cells (IgM), CD3^+ T cells (T), and unfractionated bone marrow cells (BM). […] Statistical significance relative to HSCs was assessed using a repeated-measures one way ANOVA followed by Dunnett's test (n=9; **P<0.01, ***P<0.001).
# CD48-LSK HSCs/MPPs = assay: Western blot of ubiquitylated protein in cultured HSCs; format: cell-based, mouse; details: added to culture medium; HSCs 4 and 18 hours in vitro
# Description: FIG. 10A-C depicts increased protein synthesis and reduced protein quality within HSCs in vitro. FIG. 10A depicts relative protein synthesis rates of HSCs normalized to bone marrow cells in vivo (n=6) and after 4 hours in vitro (n=5). Statistical significance was assessed with a two-tailed Student's t-test (***P<0.001). FIGS. 10B and 10C depict western blots that examined ubiquitylated protein levels in freshly isolated or cultured CD48^−LSK HSCs/MPPs. […] The accumulation of ubiquitylated protein was prevented by addition of the translation inhibitor cycloheximide (CHX) to culture medium.
# The accumulation of ubiquitylated protein could be blocked by adding the translation inhibitor cycloheximide to the culture medium (FIG. 10B, 10C).
structure (smiles),measurement,setting,value
CC(C)C[C@H](NC(=O)[C@H](Cc1ccccc1)NC(=O)c1cnccn1)B(O)O [Bortezomib],increase in TMI fluorescence as compared to cells from vehicle treated controls,bone marrow cells,~30%
CCc1ccc(S(=O)(=O)Nc2cc(-c3cccs3)nn2-c2ccccc2)cc1 [HSF1A],Hsf1 abundance in the nucleus of cultured HSCs,Hsf1,increase Hsf1 abundance in the nucleus
same,donor cell reconstitution vs recipients of freshly isolated HSCs,HSCs; 10 HSCs cultured 10 days vs 10 freshly isolated HSCs,higher levels of donor cell reconstitution as compared to recipients of freshly isolated HSCs
same,donor cell reconstitution in primary recipients vs HSCs cultured without agent,"HSCs; 10 HSCs cultured 10 days, with 2x10^5 congenic bone marrow cells, 16 weeks",significantly higher levels of donor cell reconstitution as compared to controls
same,fraction of recipients with long-term multilineage reconstitution vs HSCs cultured without agent,"HSCs; primary and secondary transplants, 16 week, >0.5% B-, T-, myeloid cells",greater fraction
same,fraction of recipients with long-term multilineage reconstitution vs freshly isolated HSCs,HSCs; secondary transplants,significantly greater fraction
same,donor cell reconstitution in secondary recipients vs HSCs cultured without agent,"HSCs; serial transplant, 3x10^6 cells/recipient",even more pronounced
same,"donor cell reconstitution vs controls (DMSO), control HSCs",[1]; 10 HSCs cultured 10 days,higher levels of donor cell reconstitution as compared to controls
same,positive effect on donor cell reconstitution with Hsf1-deficient HSCs,[1]; Hsf1-deficient HSCs cultured 10 days,lost
C[C@@H]1C[C@@H]([C@H](O)CC2CC(=O)NC(=O)C2)C(=O)[C@@H](C)C1 [cycloheximide],incorporation of OPP (new protein synthesis),[2],inhibited
same,accumulation of ubiquitylated protein,CD48-LSK HSCs/MPPs,blocked
